# Laboratory results published in patent publication US7781565B2 (priority 2006, dated 2010).
# “Also recorded” adds a separate entry of the source.
# System: NCI-60 cell lines
# Assay type: cell-based, human
Substance,Cell Line (NCI-60 cell line the peptide and its motif are associated with),Cell Line the peptide is associated with (peptide recovered from phage library selection on this NCI-60 cell line),Cell Line with which the peptide (and its tripeptide motif) is associated,Cell Line (NCI-60 cell line the peptide is associated with)
SNFYGSS,M14 Melanoma,,,
SRLSYRT,,TK-10 Renal,,
TAGRLEV,,RXF393 Renal,,
WSGGLNV,,,H322-Lung,
GLGSCAP,,RXF393 Renal,,
LAGSGSH,,,Molt-4-Leukemia,
RSSPVWT,,,,SW620-Colon
GVVQAVS,SK-MEL-5 Melanoma,,,
GGRSQEG,,UO31 Renal,,
HAAVMSL,,,,HCT-15 Colon
ANASGVR,M14 Melanoma,,,
SRLSYRA,786-0 Renal,,,
WSATGVS,,HS 578 T Breast,,
TNRFARG,,T-47D Breast,,
STEGGGL,,,Molt-4-Leukemia,
AAIVGVS,,MDA-MB-231 Breast,,
RAAGSAG,IGROV1 Ovarian,,,
HSRAVAP,,,SR Leukemia,
GRSSGME,,,,HT-29 Colon
GLVGRRA,,,,COLO-205-Colon
RYGTAGS,,SN12C Renal,,
RGSHLVP,,,CCRF-CEM Leukemia,
LEAGSQL,,,H226-Lung,
GGLSRSN,,,,SF-268 CNS

Substance,Cell Line (NCI-60 cell line the peptide and its motif are associated with),Cell Line the peptide is associated with (peptide recovered from phage library selection on this NCI-60 cell line),Cell Line with which the peptide (and its tripeptide motif) is associated,Cell Line (NCI-60 cell line the peptide is associated with)
WRVRSSG,,,,HCT-15 Colon
ACTGVSR,,RXF393 Renal,,
QRSSDLT,M14 Melanoma,,,
QDRVSRS,,,Hop-92-Lung,
SKAVLRS,SK-MEL-2 Melanoma,,,
GGSRNRW,,,H226-Lung,
LRVSNPR,UACC62 Melanoma,,,
RRGSGGL,,,H23-Lung,
FRAASLL,,MDA-MB-231 Breast,,
TVGSSLG,,T-47D Breast,,
PGGLVPG,,,,HT-29 Colon
VNLGGSW,,,H322-Lung,
GSSLSRP,,RXF393 Renal,,
TFAGLAQ,,BT-549 Breast,,
FLRGVEL,SK-OV-3-3 Ovarian,,,
RRAGGSV,OVCAR-5 Ovarian,,,
WAHGVLS,M14 Melanoma,,,
FSKMRAS,DU-145 Prostate,,,
AVWGGLG,,,H226-Lung,
YDGLVSG,,,,COLO-205-Colon
PRSSLVV,,,H460-Lung,
LACRGPS,PC3 Prostate,,,
SVEGRGV,,,A549-Lung,
LRVGXPG,,NCI/ADR-RES Breast,,

Substance,Cell Line (NCI-60 cell line the peptide and its motif are associated with),Cell Line the peptide is associated with (peptide recovered from phage library selection on this NCI-60 cell line),Cell Line with which the peptide (and its tripeptide motif) is associated,Cell Line (NCI-60 cell line the peptide is associated with)
LLRSAAP,,,RPMI-8226-Leukemia,
RSGRVSN,SK-OV-3-3 Ovarian,,,
RAGRDAP,UACC62 Melanoma,,,
GPSSMTF,,,,COLO-205-Colon
AGRRFGG,,,EKVX-Lung,
AASTRSL,,,,MALME-3M Melanoma
ANGSSKK,,MDA-MB-231 Breast,,
RASCALT,,,HL-60-Leukemia,
GAYGGLL,,,,SF-268 CNS
AGGGGYH,,MDA-MB-435-Breast,,
LASLGVG,,,H23-Lung,
WTERASA,,,,HCT-15 Colon
RLSGAGD,OVCAR-5 Ovarian,,,
WRLLRRQ,,,SR Leukemia,
YSIMRVS,,,,SF-295 CNS
LIGGRNA,,,,HCT-116 Colon
AGLTIGI,,,,SNB-19 CNS; also recorded: SF-539 CNS
HGRVHRL,,,H23-Lung,
GRAVWMV,,,,KM-12C Colon
GRLAVVA,,,,HT-29 Colon
PTGAGLL,IGROV1 Ovarian,,,
FPAVSTE,,T-47D Breast,,
NMAGGQE,IGROV1 Ovarian,,,
LGGGGLL,,,,KM-12C Colon

Substance,Cell Line (NCI-60 cell line the peptide and its motif are associated with),Cell Line the peptide is associated with (peptide recovered from phage library selection on this NCI-60 cell line),Cell Line with which the peptide (and its tripeptide motif) is associated,Cell Line (NCI-60 cell line the peptide is associated with)
GVRGAAR,,,,HCT-15 Colon
LGGRADF,,,CCRF-CEM Leukemia,
GSTLLSR,,,,LOX-IMVI Melanoma
YRGSSGK,,,RPMI-8226-Leukemia,
GYLGRLP,,NCI/ADR-RES Breast,,
GGALLRG,,,Hop-92-Lung,
VFQRSSG,,,A549-Lung,
FGVLFRS,,,EKVX-Lung,
DGPSCVI,UACC62 Melanoma,,,
RRARGAC,,,,SNB-75 CNS
SSTRGVY,,,,HT-29 Colon
RDGAVNL,UACC 257 Melanoma,,,
DGPSGCS,,,,SNB-75 CNS
AWLLSGR,UACC 257 Melanoma,,,
RYSTLLR,,,K-562-Leukemia,
FGLGSSR,,,Hop-62-Lung,
YDGRLAR,,,,SNB-19 CNS; also recorded: SF-539 CNS
WDQGSGY,OVCAR-4 Ovarian,,,
AAYWGPS,,A498 Renal,,
AGGWRGR,,,,SF-268 CNS
LELGRLL,,,HL-60-Leukemia,
YAAGGST,A498 Renal,A498 Renal,,
HLRSGFS,DU-145 Prostate,,,
